Assay results taken from patent publication US10494364B2, “Cathepsin K inhibitors and application thereof” (SUNSHINE LAKE PHARMA CO., LTD., priority 2015, dated 2019).

Columns and labels:
Assay type in all cases: biochemical
human cathepsin B = human cathepsin B (Homo sapiens, UniProt P07858); assay: Assay of cathepsin B inhibitory activity in vitro; conditions: IC50 against human cathepsin B; substrate Z-Phe-Arg-AMC 10 μM; 25° C.; read-out: Cat-B
Protocol: Assay Method of Cathepsin B Inhibitory Activity In Vitro
0.01 ng/μL was the final concentration of Cathepsin B in the enzyme reaction, and Z-Phe-Arg-AMC with the final concentration of 10 μM was added into the reaction system as substrate, in the reaction system the test compound and enzyme had been incubated at 25° C. for 15 min.

human cathepsin S = human cathepsin S (Homo sapiens, UniProt P25774); assay: Assay of cathepsin S inhibitory activity in vitro; conditions: IC50 against human cathepsin S; substrate Z-VVR-AMC 20 μM; 25° C.; read-out: Cat-S
Sequence of human cathepsin S (P25774 115-331): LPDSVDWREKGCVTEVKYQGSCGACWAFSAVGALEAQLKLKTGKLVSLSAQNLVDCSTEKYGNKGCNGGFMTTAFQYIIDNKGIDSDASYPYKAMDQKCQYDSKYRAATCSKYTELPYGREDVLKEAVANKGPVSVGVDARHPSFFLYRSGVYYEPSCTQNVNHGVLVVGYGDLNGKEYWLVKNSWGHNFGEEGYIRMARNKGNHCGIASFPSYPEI
Protocol: Assay Method of Cathepsin S Inhibitory Activity In Vitro
0.25 ng/L was the final concentration of Cathepsin S in the enzyme reaction, and Z-VVR-AMC with the final concentration of 20 μM was added into the reaction system as substrate, in the reaction system the test compound and enzyme had been incubated at 25° C. for 15 min.

human cathepsin L = human cathepsin L (Homo sapiens, UniProt P07711); assay: Assay of cathepsin L inhibitory activity in vitro; conditions: IC50 against human cathepsin L; substrate Z-Phe-Arg-AMC 10 μM; 25° C.; read-out: Cat-L
Sequence of human cathepsin L (P07711 114-333): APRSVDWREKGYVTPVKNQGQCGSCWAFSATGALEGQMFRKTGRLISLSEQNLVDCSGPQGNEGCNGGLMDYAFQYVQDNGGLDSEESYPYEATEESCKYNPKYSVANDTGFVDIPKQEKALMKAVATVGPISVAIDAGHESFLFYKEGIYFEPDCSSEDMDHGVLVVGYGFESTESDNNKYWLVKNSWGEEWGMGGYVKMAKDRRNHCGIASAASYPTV
Protocol: Assay Method of Cathepsin L Inhibitory Activity In Vitro
0.01 ng/μL was the final concentration of Cathepsin L in the enzyme reaction, and Z-Phe-Arg-AMC with the final concentration of 10 μM was added into the reaction system as substrate, in the reaction system the test compound and enzyme had been incubated at 25° C. for 15 min.

human cathepsin K = target: T1, human cathepsin K (Homo sapiens, UniProt P43235); assay: Assay of cathepsin K inhibitory activity in vitro; conditions: IC50 against human cathepsin K; substrate Z-Phe-Arg-AMC 10 μM; 25° C.; read-out: Cat-K
T1 sequence (P43235 115-329): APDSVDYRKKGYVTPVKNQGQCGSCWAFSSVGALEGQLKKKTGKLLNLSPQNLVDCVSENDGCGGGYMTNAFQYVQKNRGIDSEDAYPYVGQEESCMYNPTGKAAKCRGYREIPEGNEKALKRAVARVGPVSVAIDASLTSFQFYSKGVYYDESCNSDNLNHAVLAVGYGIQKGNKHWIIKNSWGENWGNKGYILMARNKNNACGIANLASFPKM
Protocol: Assay Method of Cathepsin K Inhibitory Activity In Vitro
Using 45000-fold diluted cathepsin K solution and 10 μM Z-Phe-Arg-AMC as substrate, the test compound and cathepsin K solution were incubated at 25° C. for 15 min in a 15 μL reaction system according to the optimized experimental condition.

Row | Compound | IC50 (human cathepsin B) | IC50 (human cathepsin S) | IC50 (human cathepsin L) | IC50 (human cathepsin K)
1 | N#CC1(NC(=O)C2(NC(=O)c3cc4ccc(-c5ccc(C6(N)COC6)cc5)cc4o3)CCCCC2)CC1 [Example 1, 6-(4-(3-aminooxetan-3-yl)phenyl)-N-(1-((1-cyanocyclopropyl)carbamoyl)cyclohexyl)benzofuran-2-carboxamide] | 22 nM | 1800 nM | 1500 nM | 0.19 nM
2 | CS(=O)(=O)c1ccc(-c2ccc3cc(C(=O)NC4(C(=O)NC5(C#N)CC5)CCCCC4)oc3c2)c(F)c1 [Example 5, N-(1-((1-cyanocyclopropyl)carbamoyl)cyclohexyl)-6-(2-fluoro-4-(methylsulfonyl)phenyl)benzofuran-2-carboxamide] | 78 nM | 1600 nM | > 10000 nM | 1.1 nM
3 | N#CC1(NC(=O)C2(NC(=O)c3cc4ccc(-c5ccc(C(O)C(F)F)cc5)cc4o3)CCCCC2)CC1 (centres unmarked) [Example 7, N-(1-((1-cyanocyclopropyl)carbamoyl)cyclohexyl)-6-(4-(2,2-difluoro-1-hydroxyethyl)phenyl)benzofuran-2-carboxamide] | 103 nM | 2100 nM | > 10000 nM | 0.62 nM
4 | N#CC1(NC(=O)C2(NC(=O)c3cc4ccc(-c5ccc(C6(O)CCC6)cc5)cc4o3)CCCCC2)CC1 [Example 9, N-(1-((1-cyanocyclopropyl)carbamoyl)cyclohexyl)-6-(4-(1-hydroxycyclobutyl)phenyl)benzofuran-2-carboxamide] | 410 nM | 3500 nM | > 10000 nM | 2.7 nM
5 | N#CC1(NC(=O)C2(NC(=O)c3cc4ccc(-c5ccc(C(O)C6(O)CC6)cc5)cc4o3)CCC(F)(F)CC2)CC1 (centres unmarked) [Example 15, N-(1-((1-cyanocyclopropyl)carbamoyl)-4,4-difluorocyclohexyl)-6-(4-(hydroxy(1-hydroxycyclopropyl)methyl)phenyl)benzofuran-2-carboxamide] | 750 nM | 620 nM | > 10000 nM | 3.1 nM
6 | N#CC1(NC(=O)C2(NC(=O)c3cc4ccc(-c5ccc(C6(O)CCOCC6)cc5)cc4o3)CCC(F)(F)CC2)CC1 [Example 22, N-(1-((1-cyanocyclopropyl)carbamoyl)-4,4-difluorocyclohexyl)-6-(4-(4-hydroxytetrahydro-2H-pyran-4-yl)phenyl)benzofuran-2-carboxamide] | 3100 nM | 1800 nM | > 10000 nM | 1.8 nM
7 | N#CC1(NC(=O)C2(NC(=O)c3cc4ccc(-c5ccc(C6(O)CCS(=O)(=O)CC6)cc5)cc4o3)CCC(F)(F)CC2)CC1 [Example 27, N-(1-((1-cyanocyclopropyl)carbamoyl)-4,4-difluorocyclohexyl)-6-(4-(4-hydroxy-1,1-dioxidotetrahydro-2H-thiopyran-4-yl)phenyl)benzofuran-2-carboxamide] | 2100 nM | 400 nM | > 10000 nM | 0.83 nM
8 | N#CC1(NC(=O)C2(NC(=O)c3cc4ccc(-c5ccc(N6CCOCC6=O)cc5)cc4o3)CCC(F)(F)CC2)CC1 [Example 28, N-(1-((1-cyanocyclopropyl)carbamoyl)-4,4-difluorocyclohexyl)-6-(4-(3-oxomorpholino)phenyl)benzofuran-2-carboxamide] | 2200 nM | 1900 nM | > 10000 nM | 1.2 nM
9 | COc1cc(-c2ccc3cc(C(=O)NC4(C(=O)NC5(C#N)CC5)CCC(F)(F)CC4)oc3c2)ccc1C(=O)N1CCOCC1 [Example 40, N-(1-((1-cyanocyclopropyl)carbamoyl)-4,4-difluorocyclohexyl)-6-(3-methoxy-4-(morpholine-4-carbonyl)phenyl)benzofuran-2-carboxamide] | 2220 nM | > 10000 nM | > 10000 nM | 0.96 nM
10 | CS(=O)(=O)COc1ccc(-c2ccc3cc(C(=O)NC4(C(=O)NC5(C#N)CC5)CCC(F)(F)CC4)oc3c2)cc1 [Example 98] | – | – | – | 1.02 nM
11 | COc1cc(-c2ccc3cc(C(=O)NC4(C(=O)NC5(C#N)CC5)CCC(F)(F)CC4)oc3c2)ccc1OCS(C)(=O)=O [Example 101] | – | – | – | 0.88 nM

Next, values leading:

Row | IC50 (human cathepsin B) | IC50 (human cathepsin S) | IC50 (human cathepsin L) | IC50 (human cathepsin K) | Compound
12 | 880 nM | 4000 nM | > 10000 nM | 1.37 nM | CS(=O)(=O)c1ccc(-c2ccc3cc(C(=O)NC4(C(=O)NC5(C#N)CC5)CCC(F)(F)CC4)oc3c2)cc1 [Example 2, N-(1-((1-cyanocyclopropyl)carbamoyl)-4,4-difluorocyclohexyl)-6-(4-(methylsulfonyl)phenyl)benzofuran-2-carboxamide]
13 | 2500 nM | > 10000 nM | > 10000 nM | 2.1 nM | COc1ccc(-c2ccc3cc(C(=O)NC4(C(=O)NC5(C#N)CC5)CCC(F)(F)CC4)oc3c2)cc1OC [Example 4, N-(1-((1-cyanocyclopropyl)carbamoyl)-4,4-difluorocyclohexyl)-6-(3,4-dimethoxyphenyl)benzofuran-2-carboxamide]
14 | 750 nM | 620 nM | > 10000 nM | 3.1 nM | N#CC1(NC(=O)C2(NC(=O)c3cc4ccc(-c5ccc(C(O)CO)cc5)cc4o3)CCC(F)(F)CC2)CC1 (centres unmarked) [Example 6, N-(1-((1-cyanocyclopropyl)carbamoyl)-4,4-difluorocyclohexyl)-6-(4-(1,2-dihydroxyethyl)phenyl)benzofuran-2-carboxamide]
15 | 86 nM | 260 nM | 3100 nM | 0.38 nM | N#CC1(NC(=O)C2(NC(=O)c3cc4ccc(-c5ccc(C6(N)COC6)cc5)cc4o3)CCC(F)(F)CC2)CC1 [Example 14, 6-(4-(3-aminooxetan-3-yl)phenyl)-N-(1-((1-cyanocyclopropyl)carbamoyl)-4,4-difluorocyclohexyl)benzofuran-2-carboxamide]
16 | > 10000 nM | 2300 nM | > 10000 nM | 2 nM | N#CC1(NC(=O)C2(NC(=O)c3cc4ccc(-c5ccc(OC6COC6)cc5)cc4o3)CCC(F)(F)CC2)CC1 [Example 19, N-(1-((1-cyanocyclopropyl)carbamoyl)-4,4-difluorocyclohexyl)-6-(4-(oxetan-3-yloxy)phenyl)benzofuran-2-carboxamide]
17 | 7600 nM | 3300 nM | > 10000 nM | 1.9 nM | N#CC1(NC(=O)C2(NC(=O)c3cc4ccc(-c5ccc6ncoc6c5)cc4o3)CCC(F)(F)CC2)CC1 [Example 32, 6-(benzo[d]oxazol-6-yl)-N-(1-((1-cyanocyclopropyl)carbamoyl)-4,4-difluorocyclohexyl)benzofuran-2-carboxamide]
18 | 2300 nM | > 10000 nM | > 10000 nM | 2.95 nM | N#CC1(NC(=O)C2(NC(=O)c3cc4ccc(-c5ccc6c(c5)OCCO6)cc4o3)CCC(F)(F)CC2)CC1 [Example 33, N-(1-((1-cyanocyclopropyl)carbamoyl)-4,4-difluorocyclohexyl)-6-(2,3-dihydrobenzo[b][1,4]dioxin-6-yl)benzofuran-2-carboxamide]
19 | 409 nM | > 10000 nM | > 10000 nM | 0.31 nM | COc1cc(-c2ccc3cc(C(=O)NC4(C(=O)NC5(C#N)CC5)CCC(F)(F)CC4)oc3c2)ccc1-n1cncn1 [Example 39, N-(1-((1-cyanocyclopropyl)carbamoyl)-4,4-difluorocyclohexyl)-6-(3-methoxy-4-(1H-1,2,4-triazol-1-yl)phenyl)benzofuran-2-carboxamide]
20 | – | – | – | 0.56 nM | COc1cc(-c2ccc3cc(C(=O)NC4(C(=O)NC5(C#N)CC5)CCC(F)(F)CC4)oc3c2)ccc1CS(C)(=O)=O [Example 100]
